For eleven molecules, IC50 results are on record in US4465685A, “Antiinflammatory pyrazole thioureas” (Burroughs Wellcome Co., priority 1980, dated 1984).

One test deals with lipoxygenase. The test can be described thus: enzyme assay (Blackwell and Flower), inhibition of lipoxygenase. It counts as biochemical. To be noted: read-out: ED50 Lipoxygenase.
Another test concerns the target cyclo-oxygenase. The test can be described thus: enzyme assay (Blackwell and Flower), inhibition of cyclo-oxygenase. It counts as biochemical. As to conditions: read-out: ED50 Cyclo-oxygenase.

As for `O=C(NC1=NN(c2cccc(C(F)(F)F)c2)CC1)Nc1ccccc1` [Example 1, 3-(N^2-phenylureido)-1-(3-trifluoromethylphenyl)-2-pyrazoline], the IC50 is 5000 to 10000 nM on lipoxygenase and 3000 nM at cyclo-oxygenase.
For `CNC(=O)NC1=NN(c2cccc(C(F)(F)F)c2)CC1` [Example 2, 3-(N^2-methylureido)-1-(3-trifluoromethylphenyl)-2-pyrazoline], in that order: 3000 nM and 3000 nM.
`CNC(=S)NC1=NN(c2cccc(C(F)(F)F)c2)CC1` [Example 3, 3-(N^2-methylthioureido)-1-(3-trifluoromethylphenyl)-2-pyrazoline]: the IC50 on lipoxygenase and on cyclo-oxygenase was 1000 nM in each case.
On to `CN=C(NC1=NN(c2cccc(C(F)(F)F)c2)CC1)SC` [Example 5, 3-(N^2,S-dimethylisothioureido)-1-(3-trifluoromethylphenyl)-2-pyrazoline hydriodide monohydrate], for which the IC50 at lipoxygenase and at cyclo-oxygenase was 1000 nM throughout.
Take `CNC(=S)NC1=NN(c2ccc(Cl)cc2)CC1` [Example 6, 3-(3-methylthioureido)-1-(4-chlorophenyl)-2-pyrazoline]: the IC50 on lipoxygenase was found to be 3000 nM; at cyclo-oxygenase it was 5000 nM.
Consider `CCCCNC(=S)NC1=NN(c2cccc(C(F)(F)F)c2)CC1` [Example 8, 3-(3-butylthioureido)-1-(3-trifluoromethylphenyl)-2-pyrazoline], for which the IC50 at lipoxygenase and at cyclo-oxygenase was 10000 nM throughout.
Regarding `CN=C(NC1=NN(c2ccc(Cl)cc2)CC1)SC` [Example 9, N,S-dimethyl-N^2 -/1-(4-chlorophenyl)-2-pyrazoline-3-yl/isothiourea hydriodide], the IC50 at lipoxygenase and on cyclo-oxygenase was 10000 nM throughout.
With `CNC(=S)NC1=NN(c2ccc3ccccc3c2)CC1` [Example 10, 3-(3-methylthioureido)-1-(2-naphthyl)-2-pyrazoline], the IC50 was found to be 1000 nM at lipoxygenase and 250 nM at cyclo-oxygenase.
As to `CNC(=S)NC1=NN(c2cnc3ccccc3c2)CC1` [Example 13, 3-(3-Methylthioureido)-1-(3-quinolyl)-2-pyrazoline], the IC50 at lipoxygenase and on cyclo-oxygenase was 10000 nM each time.
`CNC(=S)NC1=NN(c2ccccc2Cl)CC1` [Example 14, 1-(2-Chlorophenyl)-3-(3-methylthioureido)-2-pyrazoline]: the IC50 on lipoxygenase and on cyclo-oxygenase was 10000 nM each time.
For the molecule `CN=C(NC1=NN(c2ccc3ccccc3c2)CC1)SC` [Example 17, N^1,S-Dimethyl-N^2 -/1-(2-naphthyl)-2-pyrazolin-3-yl/isothiourea hydriodide], the IC50 on lipoxygenase and on cyclo-oxygenase was 1000 nM throughout.
